Measurements from patent publication US12390446B2 (RESEARCH TRIANGLE INSTITUTE, priority 2017, dated 2025).
Values after ≈ are worked out from the molar mass of the structure shown. Values joined by “and” are separate entries in the source; they are usually repeats but may differ in a detail not shown here. Identical values can stand only once. “Also recorded” adds a separate entry of the source. Like-named read-outs stand apart in the source and are kept apart here. One block for each compound: values may come before it.

Legend:
[1] = target: T1, NPFF2 receptor (human NPFFR2 in CHO-RD-HGA16 cells) (Homo sapiens, UniProt Q9Y5X5); assay: Calcium mobilization functional Ke assay, NPFF2; format: cell-based
T1 construct: expressed in transfected cells
T1 sequence (Q9Y5X5 whole entry): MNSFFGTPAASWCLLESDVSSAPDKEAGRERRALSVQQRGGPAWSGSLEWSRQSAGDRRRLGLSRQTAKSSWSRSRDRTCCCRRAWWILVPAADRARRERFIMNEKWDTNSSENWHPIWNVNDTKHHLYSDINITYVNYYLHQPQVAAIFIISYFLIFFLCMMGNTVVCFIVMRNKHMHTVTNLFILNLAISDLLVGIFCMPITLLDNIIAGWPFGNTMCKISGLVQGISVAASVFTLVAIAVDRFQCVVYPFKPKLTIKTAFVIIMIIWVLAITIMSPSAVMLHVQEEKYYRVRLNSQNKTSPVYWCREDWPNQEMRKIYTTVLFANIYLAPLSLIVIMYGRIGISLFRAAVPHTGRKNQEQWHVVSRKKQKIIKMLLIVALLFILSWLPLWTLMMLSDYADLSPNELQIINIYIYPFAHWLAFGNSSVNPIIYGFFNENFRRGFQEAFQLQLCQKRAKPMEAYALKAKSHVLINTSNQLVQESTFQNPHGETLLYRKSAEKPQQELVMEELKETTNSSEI

[2] = target: T2, NPFF1 receptor (human NPFFR1 in CHO-RD-HGA16 cells) (Homo sapiens, UniProt Q9GZQ6); assay: Calcium mobilization functional Ke assay, NPFF1; format: cell-based; details: for Kb: read-out: NPFF1 Ke; for preference / selectivity for NPFF1 over NPFF2: from calcium mobilization Ke values
T2 construct: expressed in transfected cells
T2 sequence (Q9GZQ6 whole entry): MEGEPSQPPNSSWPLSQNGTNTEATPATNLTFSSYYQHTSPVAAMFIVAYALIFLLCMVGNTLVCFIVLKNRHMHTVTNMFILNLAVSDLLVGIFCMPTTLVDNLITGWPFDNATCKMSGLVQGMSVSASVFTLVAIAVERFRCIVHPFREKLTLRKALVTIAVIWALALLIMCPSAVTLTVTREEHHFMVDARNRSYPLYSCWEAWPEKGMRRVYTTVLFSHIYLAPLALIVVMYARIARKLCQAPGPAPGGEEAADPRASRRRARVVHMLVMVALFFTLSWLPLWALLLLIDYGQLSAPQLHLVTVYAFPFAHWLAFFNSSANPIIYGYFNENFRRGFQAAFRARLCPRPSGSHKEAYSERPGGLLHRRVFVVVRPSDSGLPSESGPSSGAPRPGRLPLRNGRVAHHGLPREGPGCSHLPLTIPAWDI

Kinetic solubility assay = format: physicochemical
Procedure: (§1) Kinetic solubility and bidirectional MDCK-MDR1 permeability assays of the compounds were performed by Paraza Pharma Inc. (Montreal, Canada) according to their standard protocols.
Kinetic solubility assay. A 10 μL of test compound stock solution (10 mM DMSO) was combined with 490 μL of PBS (potassium phosphate monobasic 1 mM, sodium phosphate dibasic 3 mM and sodium chloride 155 mM buffer). The solution was agitated on a VX-2500 multi-tube vortexer (VWR) for 2 hours at room temperature. Following agitation, the sample was filtrated on a glass-fiber filter (1 μm) and the eluate was diluted 200-fold with a mixture of acetonitrile: water (1:1). On each experimental occasion, nicardipine and imipramine were assessed as reference compounds for low and high solubility, respectively. All samples were assessed in triplicate and analyzed by LC-MS/MS using electrospray ionization against standards prepared in the same matrix.

[3] = target: NPFF2 receptor (human NPFFR2-CHO cells) (Homo sapiens, UniProt Q9Y5X5); assay: Lance cAMP functional Ke assay, NPFF2; format: cell-based; details: for Kb: Table 5
Chain of NPFF2 receptor (human NPFFR2-CHO cells) (Q9Y5X5 whole entry): as the sequence (Q9Y5X5 whole entry) above
Procedure: as §1
(§2) cAMP assay. Stable human NPFFR1-CHO (ES-491-C) and NPFFR2-CHO (ES-490-C) cell lines were purchased from PerkinElmer and used with the Lance@ Ultra kit (TRF0262) to detect cAMP accumulation in low volume 96-well plates. Stimulation buffer containing 1× HBSS, 5 mM HEPES, 0.1% BSA stabilizer, and 0.5 mM IBMX was prepared and titrated to 7.4 at room temperature.
(§3) A single concentration of each test compound was prepared at 4× the desired final concentration in 2% DMSO/stimulation buffer and 5 μL was added to the assay plate.
(§4) Cells were lifted with versene and spun at 270 g for 10 minutes. The cell pellet was resuspended in stimulation buffer and 4,000 cells (10 μL) were added to each well. After incubating for 30 min at RT, Eu-cAMP tracer and uLIGHT-anti-cAMP working solutions were added per the manufacturer's instructions. After incubation at RT for 1 hour, the TR-FRET signal (ex 337 nm) was read on a CLARIOstar multimode plate reader (BMG Biotech, Cary NC).
(§5) Fluorescence values at 665 nm were plotted against the log of compound concentration using a nonlinear regression analysis to generate EC50 values (GraphPad Prism, GraphPad Software, Inc., San Diego CA). Ke values were calculated using the same equation as described in the calcium mobilization methods.

[4] = target: T3, NPFF2 receptor (CHO-hNPFFR2 membranes) (Homo sapiens, UniProt Q9Y5X5); assay: Radioligand binding assay, [125I]NPFF, NPFF2
T3 construct: purchased PerkinElmer RBHNF2M400UA; host or cells: CHO cell membranes
T3 sequence (Q9Y5X5 whole entry): as above
Procedure: (§6) Radioligand binding assay. Binding assays were performed according to PerkinElmer's protocol in a final volume of 500 μL of assay buffer (50 mM Tris-HCl, 1 mM MgCl2, 60 mM NaCl, 0.5% BSA, pH 7.4). […] After incubating at 27° C. for 120 minutes, the binding assay was terminated by vacuum filtration onto Unifilter GF/C glass-fiber filters (pre-soaked in 0.1% PEI) using a Brandel (Gaithersburg, MD, USA) 96-well harvester, followed by three washes with ice-cold wash buffer (50 mM Tris-HCl, 0.1% BSA, pH 7.4). The filter plate was dried for 1 hr at 55° C. Microscint 20 (50 μL) was added to each well and filter-bound radioactivity was counted on a Packard TopCount NXT microplate scintillation and luminescence counter.
(§7) Data were fit to a one site (fit Ki) competitive binding model, log EC50=log(10^log Ki*(1+RadioligandNM/HotKdNM)), to generate Ki values for the test compounds using GraphPad Prism (GraphPad Software, Inc., San Diego CA).

[5] = target: NPFF1 receptor (human NPFFR1-CHO cells) (Homo sapiens, UniProt Q9GZQ6); assay: Lance cAMP functional Ke assay, NPFF1; format: cell-based; details: for Kb: Table 5
Chain of NPFF1 receptor (human NPFFR1-CHO cells) (Q9GZQ6 whole entry): as the sequence (Q9GZQ6 whole entry) above
Procedure: as §1, §2, §3, §4, §5

[6] = target: T4, NPFF1 receptor (CHO-hNPFFR1 membranes) (Homo sapiens, UniProt Q9GZQ6); assay: Radioligand binding assay, [125I]NPFF, NPFF1
T4 construct: purchased PerkinElmer RBHNF1M400UA; host or cells: CHO cell membranes
T4 sequence (Q9GZQ6 whole entry): as above
Procedure: as §6, §7

MDCK-MDR1 cells = assay: Bidirectional MDCK-MDR1 permeability assay; format: in vitro ADME; details: for BBB permeability / rate B to A / rate apical (A) to basolateral (B): MDCK-MDR1; for Pgp substrate: from efflux ratio
Procedure: as §1
(§8) Bidirectional MDCK-MDR1 permeability assay. MDCK-mdr1 cells at passage 5 were seeded onto permeable polycarbonate supports in 12-well Costar@ Transwell® plates and allowed to grow and differentiate for 3 days. On day 3, culture medium (DMEM supplemented with 10% FBS) was removed from both sides of the transwell inserts and cells were rinsed with warm HBSS. After the rinse step, the chambers were filled with warm transport buffer (HBSS containing 10 mM HEPES, 0.25% BSA, pH 7.4) and the plates were incubated at 37° C. for 30 min prior to TEER (Trans Epithelial Electric Resistance) measurements.
(§9) The buffer in the donor chamber (apical side for A-to-B assay, basolateral side for B-to-A assay) was removed and replaced with the working solution (10 μM test article in transport buffer). The plates were then placed at 37° C. under light agitation. At designated time points (30, 60 and 90 min), an aliquot of transport buffer from the receiver chamber was removed and replenished with fresh transport buffer. Samples were quenched with ice-cold ACN containing internal standard and then centrifuged to pellet protein. Resulting supernatants are further diluted with 50/50 ACN/H2O(H2O only for Atenolol) and submitted for LC-MS/MS analysis. Reported apparent permeability (Papp) values were calculated from single determination. Atenolol and propranolol were tested as low and […] permeability references.
(§10) The apparent permeability (Papp, measured in cm/s) of a compound is determined according to the following formula:
(§11) [formula] • dQ/dt is the net rate of appearance in the receiver compartment • A is the area of the Transwell measured in cm^2 (1.12 cm^2) • Ci is the initial concentration of compound added to the donor chamber • 60 is the conversion factor for minutes to seconds. In Vivo Pharmacology.

Sprague-Dawley rats = assay: Fentanyl-induced hyperalgesia model in rats (von Frey paw withdrawal threshold); format: in vivo, rat; details: day 1 after fentanyl, i.p., cumulative doses 3.2-32 mg/kg
P-gp (MDR1) = assay: Bidirectional MDCK-MDR1 permeability assay; format: in vitro ADME; details: dog, MDCK-MDR1, pH 7.4; read-out: efflux ratio (PB→A/PA→B)
Procedure: as §1, §8, §9, §10, §11

[7] = Table 1, mean ± SEM, apparent dissociation constant vs NPFF
[8] = Table 5, [125I]NPFF displacement
[9] = Table 6, MDCK-MDR1, 10 μM test article

SMILES: CCCCCNC(=O)[C@@H]1C[C@H](NCc2ccc(OC)cc2)CN1Cc1ccccc1Cl [Compound 16, (2S,4S)-1-[(2-Chlorophenyl)methyl]-4-{[(4-methoxyphenyl)methyl]amino}-N-pentylpyrrolidine-2-carboxamide]
- Hill slope of NPFF + compound curve, calcium mobilization, NPFF2 cells [1]: 1.1
- Kb ([1]; Table 1, mean ± SEM, apparent dissociation constant vs NPFF, read-out: NPFF2 Ke): 3.09 µM
- NPFF2 Ke ([1]; calcium mobilization assay): 3,090 nM
- Hill slope of NPFF + compound curve, calcium mobilization, NPFF1 cells [2]: 1.7
- Kb [2, 7]: 720 ± 10 nM
- Kb ([2]; calcium mobilization assay): 720 nM
- preference / selectivity for NPFF1 over NPFF2 [2]: > 4 fold
- solubility (Kinetic solubility assay): good and moderate
- kinetic solubility (Kinetic solubility assay; Mean±% CV, free base): 146.8 ± 6.9 µM (≈ 65.2 µg/mL)
- solubility (Kinetic solubility assay; Table 6, kinetic solubility in PBS, free base, Mean ± % CV): 146.8 ± 6.9 µM (≈ 65.2 µg/mL)
- Hill slope of NPFF + compound curve, cAMP assay, NPFF2 cells [3]: 1.3
- Kb [3]: 2150 nM
- Ki [4, 8]: 1440 nM
- Hill slope of NPFF + compound curve, cAMP assay, NPFF1 cells [5]: 1.3
- Kb [5]: 340 ± 80 nM
- Ki [6, 8]: 890 ± 50 nM
- BBB permeability (MDCK-MDR1 cells): moderate
- rate B to A (MDCK-MDR1 cells): 6.7e-06 cm/s
- rate apical (A) to basolateral (B) (MDCK-MDR1 cells): 7.6e-06 cm/s
- Papp A-to-B (MDCK-MDR1 cells; [9]): 7.6 10^−6 cm/sec
- Papp B-to-A (MDCK-MDR1 cells; [9]): 6.7 10^−6 cm/sec
- Efflux ratio (MDCK-MDR1 cells; Table 6, PB→A/PA→B): 0.9
- Pgp substrate (MDCK-MDR1 cells): not Pgp substrates
- effect on PWT (Sprague-Dawley rats): dose-dependently increased PWT

- Kb [2, 7]: 610 ± 130 nM
- Kb ([2]; calcium mobilization assay): 610 nM
- Kb [3]: 2160 nM
- Ki [4, 8]: 1490 nM
- Kb [5]: 570 ± 170 nM
- Ki [6, 8]: 560 ± 40 nM
SMILES: COc1ccc(CN[C@H]2C[C@@H](C(=O)NCCc3ccc(F)c(F)c3)N(Cc3ccccc3Cl)C2)cc1 [Compound 34, (2S,4S)-1-[(2-Chlorophenyl)methyl]-N-[2-(3,4-difluorophenyl)ethyl]-4-{[(4-methoxyphenyl)methyl]amino}pyrrolidine-2-carboxamide]

SMILES: COc1ccc(CN[C@H]2C[C@@H](C(=O)NCCc3ccccc3)N(Cc3ccccc3Cl)C2)cc1 [Compound 24, (2S,4S)-1-[(2-Chlorophenyl)methyl]-4-{[(4-methoxyphenyl)methyl]amino}-N-(2-phenylethyl)pyrrolidine-2-carboxamide]
- Kb ([1]; read-out: Calcium mobilization assay Ke NPFF2): > 10 µM
- Kb ([1]; read-out: NPFF2 Ke): > 10 µM and 9.39 µM
- Kb [2, 7]: 850 ± 140 nM
- NPFF1 Ke ([2]; Table 4, mean ± SEM): 850 ± 140 nM
- Calcium mobilization assay Ke NPFF1 ([2]; Table 5): 850 ± 140 nM
- Kb ([2]; calcium mobilization assay): 850 nM
- Kb [3]: 3790 nM
- Ki [4, 8]: 1230 nM
- Kb [5]: 770 ± 120 nM
- Ki [6, 8]: 710 ± 20 nM

SMILES: O=C(NCCc1ccc([N+](=O)[O-])cc1)[C@@H]1C[C@H](NCc2ccc(F)cc2)CN1Cc1ccccc1Cl [Compound 64, (2S,4S)-1-[(2-Chlorophenyl)methyl]-4-{[(4-fluorophenyl)methyl]amino}-N-[2-(4-nitrophenyl)ethyl]pyrrolidine-2-carboxamide]
- Kb ([1]; Table 3, mean ± SEM, read-out: NPFF2 Ke): > 10 µM
- Kb ([1]; Table 5, read-out: Calcium mobilization assay Ke NPFF2): > 10 µM
- Kb ([2]; Table 3, mean ± SEM): 960 ± 690 nM
- preference / selectivity for NPFF1 over NPFF2 [2]: more than 10 fold
- Kb [3]: 960 nM
- Kb [5]: 1440 nM

SMILES: COc1ccc(CN[C@H]2C[C@@H](C(=O)NCCc3ccc([N+](=O)[O-])cc3)N(Cc3ccccc3Cl)C2)cc1 [Compound 33]
- Hill slope of NPFF + compound curve, calcium mobilization, NPFF2 cells [1]: 1.4
- Hill slope of NPFF + compound curve, calcium mobilization, NPFF1 cells [2]: 1.4
- Kb ([2]; calcium mobilization assay): 245 nM and 250 nM
- preference / selectivity for NPFF1 over NPFF2 [2]: ~3 fold
- type of antagonism in curve-shift assays ([2]; standard incubation, competitive profile with longer incubations): insurmountable antagonism
- solubility (Kinetic solubility assay): moderate
- Hill slope of NPFF + compound curve, cAMP assay, NPFF2 cells [3]: 1
- Ki [4]: 1670 nM
- Hill slope of NPFF + compound curve, cAMP assay, NPFF1 cells [5]: 1.4
- Ki [6]: 610 ± 30 nM
- efflux ratio at 90 min, 10 μM (P-gp (MDR1)): 1.3
- BBB permeability (MDCK-MDR1 cells): moderate
- rate B to A (MDCK-MDR1 cells): 3.6e-06 cm/s
- rate apical (A) to basolateral (B) (MDCK-MDR1 cells): 2.7e-06 cm/s
- Pgp substrate (MDCK-MDR1 cells): not Pgp substrates; also recorded: not a Pgp substrate
- effect on PWT (Sprague-Dawley rats): dose-dependently increased PWT

- Kb ([1]; Table 1, footnote c: pre-incubation of antagonist and test compound 45 min or 1 hr, read-out: NPFF2 Ke): 1.75 µM
- Kb [2, 7]: 670 ± 60 nM
- Kb ([2]; calcium mobilization assay): 670 nM
- Kb [3]: 2560 nM
- Ki [4, 8]: 1460 nM
- Kb ([5]; footnote c: pre-incubation of antagonist and receptor 1 hour): 570 ± 150 nM
- Ki [6, 8]: 920 ± 30 nM
SMILES: COc1ccc(CCNC(=O)[C@@H]2C[C@H](NCc3ccc(OC)cc3)CN2Cc2ccccc2Cl)cc1 [Compound 26, (2S,4S)-1-[(2-Chlorophenyl)methyl]-N-[2-(4-methoxyphenyl)ethyl]-4-{[(4-methoxyphenyl)methyl]amino}pyrrolidine-2-carboxamide]
